# Where two headings read alike, the source gives them in different places.
# Experiments:
# S. aureus Smith = assay: Mouse systemic infection (septicemia) model, CD-1 mice; details: Staphylococcus aureus, in Mus musculus, 48 h; for responders at 3 mg/kg: iv, read-out: Percent survival at 48 hours, IV (3 mg/kg); for responders at 30 mg/kg: po, read-out: Percent survival at 48 hours, PO (30 mg/kg)
# [1] = system: Gram-negative and Gram-positive organisms (clinical isolates); assay: Broth microdilution MIC against clinical isolates (CLSI M7-A8), Table 9; assay type: cell-based
# [2] = Acinetobacter lwoffii, n=29, read-out: MIC50
# [3] = Acinetobacter lwoffii, n=29, read-out: MIC90
# [4] = Klebsiella aerogenes, Enterobacter aerogenes, n=30
# [5] = Klebsiella pneumoniae, Klebsiella pneumonia, n=27
# [6] = Salmonella species, n=30, read-out: MIC50
# [7] = Staphylococcus aureus, Staphylococcus aureus (MRSA PVL+), n=30, read-out: MIC50
# [8] = Staphylococcus aureus, Staphylococcus aureus (MRSA PVL+), n=30, read-out: MIC90
# [9] = Stenotrophomonas maltophilia, n=29
# [10] = Streptococcus intermedius, n=30
# [11] = Streptococcus sanguis, n=18, read-out: MIC50
# [12] = Streptococcus sanguis, n=18, read-out: MIC90
# [13] = Staphylococcus aureus, Staphylococcus aureus MRSA (includes MRSA PVL+ group), n=105, read-out: MIC50
# [14] = Staphylococcus aureus, Staphylococcus aureus MRSA (includes MRSA PVL+ group), n=105, read-out: MIC90
compound,measurement,setting,value
CC(C)N1Cc2c(O)c3c(c(C(F)(F)F)c2C1)C[C@H]1C[C@H]2[C@H](N(C)C)C(O)=C(C(N)=O)C(=O)[C@@]2(O)C(O)=C1C3=O [Compound 126],responders at 3 mg/kg,S. aureus Smith,83%
same,responders at 30 mg/kg,S. aureus Smith,100%
CC[C@@H](C)N1Cc2c(O)c3c(c(C(F)(F)F)c2C1)C[C@H]1C[C@H]2[C@H](N(C)C)C(O)=C(C(N)=O)C(=O)[C@@]2(O)C(O)=C1C3=O [Compound 128],responders at 3 mg/kg,S. aureus Smith,17%
same,responders at 30 mg/kg,S. aureus Smith,0%
CCC(C)(C)N1Cc2c(O)c3c(c(F)c2C1)C[C@H]1C[C@H]2[C@H](N(C)C)C(O)=C(C(N)=O)C(=O)[C@@]2(O)C(O)=C1C3=O [Compound 129],responders at 3 mg/kg,S. aureus Smith,50%
same,responders at 30 mg/kg,S. aureus Smith,0%
CC[C@@H](C)N1Cc2c(O)c3c(c(F)c2C1)C[C@H]1C[C@H]2[C@H](N(C)C)C(O)=C(C(N)=O)C(=O)[C@@]2(O)C(O)=C1C3=O [Compound 130],responders at 3 mg/kg,S. aureus Smith,33%
same,responders at 30 mg/kg,S. aureus Smith,83%
CN(C)CC(=O)N1Cc2c(O)c3c(c(F)c2C1)C[C@H]1C[C@H]2[C@H](N(C)C)C(O)=C(C(N)=O)C(=O)[C@@]2(O)C(O)=C1C3=O [Compound 131],responders at 3 mg/kg,S. aureus Smith,100%
same,responders at 30 mg/kg,S. aureus Smith,17%
CN(C)[C@@H]1C(O)=C(C(N)=O)C(=O)[C@@]2(O)C(O)=C3C(=O)c4c(O)c5c(c(F)c4C[C@H]3C[C@@H]12)CN(C1CCC1)C5 [Compound 132],responders at 3 mg/kg,S. aureus Smith,50%
same,responders at 30 mg/kg,S. aureus Smith,50%
CC(C)N1Cc2c(O)c3c(c(N(C)C)c2C1)C[C@H]1C[C@H]2[C@H](N(C)C)C(O)=C(C(N)=O)C(=O)[C@@]2(O)C(O)=C1C3=O [Compound 135],responders at 3 mg/kg,S. aureus Smith,100%
same,responders at 30 mg/kg,S. aureus Smith,100%
CC(C)[C@H](C)N1Cc2c(O)c3c(c(F)c2C1)C[C@H]1C[C@H]2[C@H](N(C)C)C(O)=C(C(N)=O)C(=O)[C@@]2(O)C(O)=C1C3=O [Compound 137],responders at 3 mg/kg,S. aureus Smith,33%
same,responders at 30 mg/kg,S. aureus Smith,33%
C[C@@H](O)[C@H]1C(=O)N2C(C(=O)O)=C(S[C@@H]3CN[C@H](C(=O)Nc4cccc(C(=O)O)c4)C3)[C@H](C)[C@H]12 [Ertapenem],MIC50,[1]; [2],≤ 1 mg/L
same,MIC90,[1]; [3],4 mg/L
same,MIC50,"[1]; Enterobacter cloacae, n=29",≤ 1 mg/L
same,MIC90,"[1]; Enterobacter cloacae, n=29",> 8 mg/L
same,MIC50,"[1]; Escherichia coli, n=40",≤ 1 mg/L
same,MIC90,"[1]; Escherichia coli, n=40",≤ 1 mg/L
same,MIC50,"[1]; Kiebsielia oxytoca, n=30",≤ 1 mg/L
same,MIC90,"[1]; Kiebsielia oxytoca, n=30",≤ 1 mg/L
same,MIC50,[1]; [4],≤ 1 mg/L
same,MIC90,[1]; [4],≤ 1 mg/L
same,MIC50,[1]; [5],≤ 1 mg/L
same,MIC90,[1]; [5],8 mg/L
same,MIC50,"[1]; Morganella morganii, n=30",≤ 1 mg/L
same,MIC90,"[1]; Morganella morganii, n=30",≤ 1 mg/L
same,MIC50,"[1]; Proteus vulgaris, n=29",≤ 1 mg/L
same,MIC90,"[1]; Proteus vulgaris, n=29",≤ 1 mg/L
same,MIC50,[1]; [6],≤ 1 mg/L
same,MIC50,"[1]; Serratia marcescens, n=30",≤ 1 mg/L
same,MIC90,"[1]; Serratia marcescens, n=30",≤ 1 mg/L
same,MIC50,[1]; [7],4 mg/L
same,MIC90,[1]; [8],8 mg/L
same,MIC50,[1]; [9],> 8 mg/L
same,MIC90,[1]; [9],> 8 mg/L
same,MIC50,"[1]; Streptococcus anginosus, n=20",0.12 mg/L
same,MIC90,"[1]; Streptococcus anginosus, n=20",0.25 mg/L
same,MIC50,[1]; [10],0.06 mg/L
same,MIC90,[1]; [10],0.5 mg/L
same,MIC50,"[1]; Streptococcus mitis, n=29",0.25 mg/L
same,MIC90,"[1]; Streptococcus mitis, n=29",> 1 mg/L
same,MIC50,[1]; [11],0.12 mg/L
same,MIC90,[1]; [12],0.5 mg/L
"C[C@H]1COc2c(N3CCN(C)CC3)c(F)cc3c(=O)c(C(=O)O)cn1c23 [Levofloxacin, levofloxacin]",MIC50,[1]; [2],≤ 0.25 mg/L
same,MIC90,[1]; [3],≤ 0.25 mg/L
same,MIC50,"[1]; Enterobacter cloacae, n=29",1 mg/L
same,MIC90,"[1]; Enterobacter cloacae, n=29",> 4 mg/L
same,MIC50,"[1]; Escherichia coli, n=40",≤ 0.25 mg/L
same,MIC90,"[1]; Escherichia coli, n=40",> 4 mg/L
same,MIC50,"[1]; Kiebsielia oxytoca, n=30",≤ 0.25 mg/L
same,MIC90,"[1]; Kiebsielia oxytoca, n=30",4 mg/L
same,MIC50,[1]; [4],≤ 0.25 mg/L
same,MIC90,[1]; [4],≤ 0.25 mg/L
same,MIC50,[1]; [5],1 mg/L
same,MIC90,[1]; [5],> 4 mg/L
same,MIC50,"[1]; Morganella morganii, n=30",≤ 0.25 mg/L
same,MIC90,"[1]; Morganella morganii, n=30",4 mg/L
same,MIC50,"[1]; Proteus vulgaris, n=29",≤ 0.25 mg/L
same,MIC90,"[1]; Proteus vulgaris, n=29",1 mg/L
same,MIC50,[1]; [6],≤ 0.25 mg/L
same,MIC90,"[1]; Salmonella species, n=30, read-out: MIC90",≤ 0.25 mg/L
same,MIC50,"[1]; Serratia marcescens, n=30",≤ 0.25 mg/L
same,MIC90,"[1]; Serratia marcescens, n=30",2 mg/L
same,MIC90,"[1]; Shigella species, n=30, read-out: MIC90",0.5 mg/L
same,MIC50,[1]; [7],0.25 mg/L
same,MIC90,[1]; [8],> 2 mg/L
same,MIC50,[1]; [13],> 2 mg/L
same,MIC90,[1]; [14],> 2 mg/L
same,MIC50,[1]; [9],0.5 mg/L
same,MIC90,[1]; [9],> 4 mg/L
same,MIC50,"[1]; Streptococcus anginosus, n=20",0.5 mg/L
same,MIC90,"[1]; Streptococcus anginosus, n=20",0.5 mg/L
same,MIC50,[1]; [10],1 mg/L
same,MIC90,[1]; [10],2 mg/L
same,MIC50,"[1]; Streptococcus mitis, n=29",1 mg/L
same,MIC90,"[1]; Streptococcus mitis, n=29",2 mg/L
same,MIC50,[1]; [11],0.5 mg/L
same,MIC90,[1]; [12],2 mg/L
"CN[C@H](CC(C)C)C(=O)N[C@H]1C(=O)N[C@@H](CC(N)=O)C(=O)N[C@H]2C(=O)N[C@H]3C(=O)N[C@H](C(=O)N[C@H](C(=O)O)c4cc(O)cc(O)c4-c4cc3ccc4O)[C@H](O)c3ccc(c(Cl)c3)Oc3cc2cc(c3O[C@@H]2O[C@H](CO)[C@@H](O)[C@H](O)[C@H]2O[C@H]2C[C@](C)(N)[C@H](O)[C@H](C)O2)Oc2ccc(cc2Cl)[C@H]1O [Vancomycin, vancomycin]",MIC50,"[1]; Staphylococcus aureus (MRSA PVL+), n=30, read-out: MIC50",1 mg/L
same,MIC90,[1]; [8],1 mg/L
same,MIC50,[1]; [13],1 mg/L
same,MIC90,[1]; [14],1 mg/L
same,MIC50,"[1]; Streptococcus anginosus, n=20, read-out: MIC50",0.5 mg/L
same,MIC90,"[1]; Streptococcus anginosus, n=20, read-out: MIC90",0.5 mg/L
same,MIC50,"[1]; Streptococcus intermedius, n=30, read-out: MIC50",0.5 mg/L
same,MIC90,"[1]; Streptococcus intermedius, n=30, read-out: MIC90",0.5 mg/L
same,MIC50,"[1]; Streptococcus mitis, n=29, read-out: MIC50",0.5 mg/L
same,MIC90,"[1]; Streptococcus mitis, n=29, read-out: MIC90",0.5 mg/L
same,MIC50,[1]; [11],0.5 mg/L
same,MIC90,[1]; [12],1 mg/L
colistin,MIC50,"[1]; Acinetobacter lwoffii, n=29",≦0.12 μg/ml
same,MIC90,"[1]; Acinetobacter lwoffii, n=29",>2 mg/L
same,MIC50,"[1]; Enterobacter aerogenes, n=30",≦0.12 μg/ml
same,MIC90,"[1]; Enterobacter aerogenes, n=30",≦0.12 μg/ml
same,MIC50,"[1]; Enterobacter cloacae, n=29",≦0.12 μg/ml
same,MIC90,"[1]; Enterobacter cloacae, n=29",>2 mg/L
same,MIC50,"[1]; Escherichia coli, n=40",0.25 mg/L
same,MIC90,"[1]; Escherichia coli, n=40",0.5 mg/L
same,MIC50,"[1]; Kiebsielia oxytoca, n=30",≦0.12 μg/ml
same,MIC90,"[1]; Kiebsielia oxytoca, n=30",0.25 mg/L
same,MIC50,"[1]; Klebsiella pneumonia, n=27",0.25 mg/L
same,MIC90,"[1]; Klebsiella pneumonia, n=27",0.5 mg/L
same,MIC50,"[1]; Morganella morganii, n=30",>2 mg/L
same,MIC90,"[1]; Morganella morganii, n=30",>2 mg/L
same,MIC50,"[1]; Proteus vulgaris, n=29",>2 mg/L
same,MIC90,"[1]; Proteus vulgaris, n=29",>2 mg/L
same,MIC50,"[1]; Salmonella species, n=30",≦0.12 μg/ml
same,MIC90,"[1]; Salmonella species, n=30",0.5 mg/L
same,MIC50,"[1]; Serratia marcescens, n=30",>2 mg/L
same,MIC90,"[1]; Serratia marcescens, n=30",>2 mg/L
same,MIC50,"[1]; Shigella species, n=30",≦0.12 μg/ml
same,MIC90,"[1]; Shigella species, n=30",≦0.12 μg/ml
same,MIC50,[1]; [9],0.25 mg/L
same,MIC90,[1]; [9],>2 mg/L

# — patent publication US20170107179A1 (Tetraphase Pharmaceuticals, Inc., priority 2010, published 2017)
